Assay results taken from patent US11939398B2, “Modified peptides for use in treating neurodegenerative disorders” (Neuro-Bio Ltd, priority 2016, dated 2024).
Entries after “also recorded” stand apart in the source; their conditions may differ. Where a SMILES comes first, the peptide text is derived from it. [ ]: non-standard residue; d: D form. Bpa = N[C@@H](Cc1ccc(C(=O)c2ccccc2)cc1)C(=O)O; Phe(4-NH2) = Nc1ccc(C[C@H](N)C(=O)O)cc1; hArg = N=C(N)NCCCC[C@H](N)C(=O)O

Assays:
[1] = stability / degradation in human blood; format: in vitro ADME
Procedure: (§1) Test compounds were spiked at 10 μg/ml into either PBS or blood (Male Wistar rat or Human) diluted with PBS, and a series of samples taken according to the following scheme:
(§2) Procaine, a compound known to be unstable in blood, was included as a positive control (ran with 5-fold diluted blood only). The sampling procedure was to add an aliquot to ice-cold acetonitrile, centrifuge, and store the supernatant on dry ice until analysis. Analysis by UHPLC-TOF mass spectrometry using electrospray ionisation was performed on the same day as the incubations were performed.

[2] = tested on: rat basal forebrain slices; assay: voltage-sensitive dye imaging (VSDI) on brain slices, Example 7; format: cell-based
Procedure: Brain slices were prepared as in Example 5.
Slices were placed in a dark, high humidity chamber filled with aCSF bubbling with 95% O2e5% CO2. Once there, the dye solution (4% 0.2 mM styryl dye pyridinium 4-[2-[6-(dibutylamino)-2-aphthalenyl]-ethenyl]-1-(3-sulfopropyl)hydroxide (Di-4-ANEPPS, Invitrogen, Paisley, UK) (Tominaga et al., 2000) in aCSF 48%, fetal bovine serum 48%, DMSO 3.5% and cremophore EL 0.4%) was applied to the slices for 20-25 min before being transferred to an aCSF bubbler pot (room temperature, 22 C+/−1.5 C) for 1 h to wash off excess dye and recover.
When starting VSD recordings, slices were placed in the recording bath on a small piece of filter paper to keep slice alive and was weighed down appropriately using a home-made plastic grid placed atop the slice. The perfusing bath solution was heated to 30+/−1 C by a stage heater. A concentric bipolar stimulating electrode (FHC, Maine, US) was placed in the ventral diagonal band of the basal forebrain with stimulation being set at 30 V. For acquiring of VSD data, 16-bit images were recorded with 1 ms resolution with a digital camera (Brain Vision MiCAM Ultima R3-V20 Master) with Ultima 2004/08 imaging software (Brain Vision) coupled to Spike 2 V6.0 (CED Ltd, Cambridge, UK) which was used to trigger stimulations with respect to appropriate ISI. […]

PC12 cells [3] = assay: Calcium fluorometry (Fluo-8, PNU282987-induced calcium increase) in PC12 cells; format: cell-based; details: in conjunction with T30, PC12 cells
Procedure: PC12 cells were plated in 200 μl of Dulbecco's Modified Eagle's medium (DMEM) plus 2 mM of L-glutamine medium the day before the experiment in 96 well plates. On the day of the experiment, the Fluo-8 solution (Abcam) was prepared as described by the provider by adding 20 μl of Fluo-8 in the assay buffer that contains 9 ml of Hank's Balanced Salt Solution (HBSS) and 1 ml of pluronic F127 Plus. Subsequently, 100 μl of growth medium was removed and 100 μl of Fluo-8 solution were added. Treatments with T30 in conjunction with NBP14 or Tri peptides were added and incubated for 30 minutes in the incubator and 30 minutes room temperature. After 1 h, the plate was placed in the fluorescence plate reader (Fluostar, Optima, BMG Labtech, Ortenberg, Germany). Before reading the fluorescence, PNU282987 1 μM, an alpha7 specific agonist of the nicotinic receptors, was prepared and placed in the Fluostar injector. For each well, the reading was formed by a basal fluorescence reading followed by PNU282987 injection that induced an increase of calcium via nicotinic receptors.
In each of the different cell techniques, the statistics analysis was performed with the average of the percentage values of 3 or more experiments. Comparisons between multiple treatment groups and the same control were performed by one-way analysis of variance (ANOVA) and Tukey's post-hoc tests using GraphPAD Instat (GraphPAD software, San Diego, California). Statistical significance was taken at a p value<0.05.

[4] = stability / degradation in rat blood; format: in vitro ADME; details: for stability in blood / degradants detected: rat blood diluted with PBS; for degradants detected: UHPLC-TOF MS
Procedure: as §1, §2

[5] = tested on: rat basal forebrain slices; assay: voltage-sensitive dye imaging (VSDI) on brain slices, Example 5; format: cell-based
Procedure: Male Wistar rats (14 days old) were anaesthetised using isoflurane (˜15 ml, 100% w/w). Isoflurane was applied to the cotton bed at the bottom of an anaesthetic chamber (glass box 20×15×15 cm) where rats were then placed for approximately 45 s until complete anaesthesia was reached. The hind paw of each anaesthetised rat was pinched to check for the appropriate depth of anaesthesia. Upon confirmation of anaesthesia, rats were quickly decapitated, with the brain being quickly removed and immersed in ice cold oxygenated ‘slicing’ artificial cerebrospinal fluid (aCSF in mmol: 120 NaCl, 5 KCL, 20 NaHCO3, 2.4 CaCl2 2 MgSO4, 1.2 KH2PO4, 10 glucose, 6.7 HEPES salt and 3.3 HEPES acid; pH=7.1). Coronal slices (400 μm thick) were then taken from a block of brain containing the basal forebrain, namely the MS-dBB complex (between +9.20 and +9.48 mm Interaural and +0.48 and +0.2 mm Bregma, FIG. 4A) and the somatosensory barrel field cortex (SiBF, between +8.08 and +7.20 mm Interaural and −0.92 mm and −1.80 mm Bregma) (Paxinos and Watson, 1998) using a Vibratome (Leica VTi000S).
Slices were then transferred to a bubbler pot containing oxygenated aCSF at room temperature (recording aCSF in mmol: 124 NaCl, 5 KCL, 20 NaHCO3, 2.4 CaCl2 2 MgSO4, 1.3 KH2PO4, 10 glucose; pH=7.4) which was identical to that used in VSDI (voltage sensitive dye imaging) recording. Slices were then left for approximately 1-1.5 hours before preparing them for VSD staining.
Slices were placed in a dark, high humidity chamber filled with aCSF bubbled with 95% O2, 5% CO2. Once there, the dye solution (4% 0.2 mM styryl dye pyridinium 4-[2-[6-(dibutylamino)-2-napthalenyl]-ethenyl]-1-(3-sulfopropyl)hydroxide (Di-4-NEPPS), Invitrogen, Paisley, UK in 48% aCSF, 48% foetal bovine serum, 3.5% DMSO and 0.4% cremophore EL) (Tominaga et al., 2000) was applied to the slices for 20-25 minutes before being transferred back to a bubbler pot containing oxygenated aCSF kept at room temperature for 30 minutes.
When starting the VSDI recordings, slices were placed in the recording bath on a small piece of filter paper to allow the flow of oxygenated aCSF on the underside of the slice and in order to keep it alive. The slice was then weighed down by a home-made plastic grid that was placed on top of the slice. […] For the acquisition of VSD data, 2 dimensional images, equivalent to 88×60 pixels, were recorded using the MiCamo2 High Resolution camera (Brain Vision, Japan) with BV_Analyze imaging software. […] Light was generated using an Osram halogen xenophot 64634 HLX EFR Display/Optic lamp and was filtered to emit green (530±10 nm) light using a MHF-G150LR (Moritex Corporation) coupled to the MiCamo2 High resolution imaging system and filtered the emitted fluorescence through a >590 nm high pass filter. […]

PC12 cells [6] = assay: AChE activity assay (Ellman reagent) in PC12 cells treated with T30; format: cell-based; details: combined with T30 (1 μM)
Procedure: AChE activity was measured using the Ellman reagent that measures the presence of thiol groups as a result of AChE activity. In the case of the G4 experiment, AChE (G4) activity was tested alone and also together with either NBP14 or Tri peptides. PC12 cells were plated the day before the experiment as for the cell viability assay. Cells were treated with T30 (1 μM) alone or combined with NBP14 or Tri peptide (0.5 μM). After treatment, supernatant (perfusate) of each treatment was collected and 25 μL from each condition were added to a new flat bottomed 96 well plate followed by the addition of 175 μl of Ellman reagent (Solution A: KH2PO4 139 mM and K2HPO4 79.66 mM, pH 7.0; solution B (substrate): Acetylthiocholine Iodide 11.5 mM; Solution C (Reagent): 5,5′-dithiobis(2-nitrobenzoic acid) 8 mM and NaHCO3 15 mM). The Ellman reagent was prepared as a mixture of the 3 solutions in a ratio 33(A):3(B):4(C). Absorbance measurements were taken for an interval of 60 minutes across experiments at 405 nm in a Vmax plate reader (Molecular devices, Wokingham, UK).
In each of the different cell techniques, the statistics analysis was performed with the average of the percentage values of 3 or more experiments. […]

[7] = human blood diluted with PBS, 10 μg/ml, up to 60 min

Row | Compound | stability in blood [1, 7] | effect on T30-induced inhibition of basal forebrain activity ([2]; 2 μM Tri04 co-perfused with 2 μM T30, n=29) | effect on T30-induced inhibition of basal forebrain activity ([2]; 4 μM Tri04 co-perfused with 2 μM T30, n=20) | protection against T30-induced calcium influx (PC12 cells [3]) | stability in blood ([4]; 10 μg/ml, up to 60 min) | degradants detected [4] | turnover ([1]; 5-fold diluted human blood, 10 μg/ml, up to 60 min) | turnover ([4]; 5-fold diluted rat blood, 10 μg/ml, up to 60 min) | degradants detected ([1]; human blood diluted with PBS, UHPLC-TOF MS) | blocking of T30-induced deviations from baseline (VSDI) ([5]; 4 μM co-perfused with T30 (2 uM)) | change in magnitude (summed fluorescence) of evoked responses, compound alone ([5]; 4 μM in perfusate, no T30) | protection against T30-induced AChE activity (PC12 cells [6])
1 | CC(=O)N[C@@H](Cc1ccc(C(=O)c2ccccc2)cc1)C(=O)N[C@@H](CCCCNC(=N)N)C(=O)N[C@@H](Cc1ccc(N)cc1)C(N)=O [Tri04, 4-((S)-2-((S)-2-((S)-2-acetamido-3-(4-benzoylphenyl)propanamido)-6-((amino(iminio)methyl)amino)hexanamido)-3-amino-3-oxopropyl)benzenaminium] (Ac-[Bpa]-[hArg]-[Phe(4-NH2)]-NH2) | better stability than TRI-02 | significant effect on basal forebrain population activity; also recorded: reversal of the inhibitory effect of T30; also recorded: increase in network activity; also recorded: protective role of Tri04 over T30 | totally block the T30-induced effects; also recorded: recapitulates results previously seen with the application of 4 μM NBP14; also recorded: significant effect reversing T30 activity | protects the toxic effects of T30 by reducing calcium influx | better stability than TRI-02 | some degradants were still detected |  |  |  |  |  | 
2 | CCN(CC)CCOC(=O)c1ccc(N)cc1 [Procaine, reference compound] |  |  |  |  |  |  | 100% | 60% |  |  |  | 
3 | CSCC[C@@H]1NC(=O)[C@H](Cc2ccc(O)cc2)NC(=O)[C@H](CO)NC(=O)[C@H](CO)NC(=O)[C@H](Cc2c[nH]c3ccccc23)NC(=O)[C@H](CCCNC(=N)N)NC(=O)[C@H](Cc2c[nH]cn2)NC(=O)[C@H](Cc2ccccc2)NC(=O)[C@H](CCC(=O)O)NC(=O)[C@H](C)NC(=O)[C@H](CCCCN)NC(=O)[C@H](Cc2c[nH]c3ccccc23)NC(=O)[C@H](Cc2c[nH]cn2)NC(=O)[C@H](C(C)C)NC1=O [NBP14, reference compound] (cyclo(AEFHRWSSYMVHWK)) | good stability |  |  | protects against these toxic effects | good stability | no degradants were detected |  |  | no degradants were detected | totally block the T30-induced effects | small, non-significant alterations | protects against these toxic effects
